ChEMBL document CHEMBL1157076, “Tetracenoquinocin and 5-iminoaranciamycin from a sponge-derived Streptomyces sp. Sp080513GE-26” (J Nat Prod, 2010)

Legend:
HeLa = assay: Cytotoxicity against human HeLa cells after 48 hrs by WST8 assay; assay type: functional, cell-based
HL-60 = assay: Cytotoxicity against human HL60 cells after 48 hrs by WST8 assay; assay type: functional, cell-based; details: HL-60, 48 h

| Structure (SMILES) | IC50 (HeLa) | IC50 (HL-60) |
| --- | --- | --- |
| CO[C@H]1[C@H](O[C@@H]2c3c(cc4c(c3O)C(=N)c3c(O)cccc3C4=O)C(=O)[C@@](C)(O)[C@H]2OC)O[C@@H](C)[C@H](O)[C@H]1O | > 200 µM | > 200 µM |
| CO[C@H]1[C@H](O[C@@H]2c3c(cc4c(c3O)C(=O)c3c(O)cccc3C4=O)C(=O)[C@@](C)(O)[C@H]2OC)O[C@@H](C)[C@H](O)[C@H]1O [ARANCIAMYCIN] | 2.7 µM | 4.1 µM |
| CO[C@H]1[C@H](Oc2cc(C)cc3cc4c(c(O)c23)C(=O)c2c(O)cccc2C4=O)O[C@@H](C)[C@H](O)[C@H]1O [TETRACENOQUINOCIN] | 120 µM | 210 µM |
